Like-named read-outs stand apart in the source and are kept apart here.
Assays:
Human RPE cells = assay: Formation of lipofuscin (auto-fluorescence) in RPE cells with tyrosinase inhibited by PTU; format: cell-based
Procedure: Human retinal pigment epithelium cells were isolated 2 hours post mortem from eyes of organ donors by incubation in 0.2% trypsin solution with 0.5 mM EDTA (if not indicated differently the reagents are from Sigma, Deisenhofen, Germany) for 30 minutes. The cells were centrifuged and cultivated in 24-well-plates (Nunc, Mainz, Germany) in Dulbeccos modified Eagle Medium with 15% foetal calf serum, 50 μg/ml gentamycin and 2.5 μg/ml amphotericin. The cells remain in primary culture (P0) for 3 weeks until confluence. Subsequent passaging was performed by trypsination of the cells in the respective time intervals. For the feeding with membranes of visual cells, cells originating from 3 different donors (passage 3, 6 and 16) were used. […]
The cells in group 1+2 were overlaid with about 2×10^6 outer segments of rods. […] After this, the cells were looked at under the fluorescence microscope (Axiovert, Zeiss, Oberkochem, Germany) with filters specific for the auto-fluorescence of the lipofuscein (excitation 360 nm, emission 540 nm, Feuerbacher Analysentechnik, Tübingen, Germany) and were photographed with a digital camera and saved using Openlab Software (Improvision, UK).

[1] = for zinc concentration of the chorioidea-RPE-complex: 24 hours after 40 mg/kg ZnCl2 intraperitoneally
Procedure: Two albino (Wistar) rats and two pigmented (Long Evans) rats were injected intraperitoneally with 40 mg/kg body weight ZnCl2. After 24 hours the chorioidea-RPE-complex was isolated from retina and sclera. Respective samples from untreated animals served as controls. The samples were weight directly into leak-proof PFA vessels (Savillex) (Microbalance Sartorius MC21S) and cracked by using ultrasound homogenisation for 24 hours at 30° C. with HNO3—H2O2 (suprapur grade reagents; Merck). After careful evaporation, the remains were solved in 2% HNO3 for 5 hours at 50° C. This solution was subsequently transferred to a 10 ml volumetric flask. The final clear solution contained 10 ng rhodamin (Rh)/ml and was refilled with 2% HNO3. The detection of zinc was performed by inductively coupled plasma mass spectrometry (ICP-MS, ELAN 6000 Perkin-Elmer/Sciex) and by using Rh as internal standard and a calibration with chemical reagents having the highest purity grade.

[2] = test system: human amelanotic retinal pigment epithelium cells ARPE-19; assay: Survival of retinal pigment epithelium cells after lethal UVA radiation; format: cell-based; details: without melanin
Procedure: 30.000 human amelanotic retinal pigment epithelium cells ARPE-19 (American Type culture Collections, Manassas, Va., USA) were cultivated in a mixture of DMEM and F12 Medium (PAA Laboratories, Linz, Austria) with 10% foetal calf serum, gentamycin and amphotericin and were incubated with 1 mg/ml melanin from squids (Sepia officinalis, Sigma). After 4 hours, the non-phagocytosed melanin was thoroughly washed away. After 24 hours the artificially pigmented cells were incubated with 100 or 200 μmol ZnCl2 for 2 hours. Three days later, the cells were irradiated using a HRL, 125 W, lamp (Radium, Germany) for 1 hour. The UVA light portion was 18 mW/cm^2 at the surface of the cell culture liquid and was measured using a RM-12 UV radiometer (Dr. Gröbel, UV Elektronik, Ettlingen, Germany). Cells without melanin and zinc treatment with and without irradiation served as controls. After 2 further days, the number of surviving cells was counted in a Thoma-chamber.
In the following table the mean values of surviving cells from 3 independent experiments are indicated. The number of surviving cells after irradiation without melanin and/or zinc treatment was statistically compared with the number of surviving cells with treatment. That is were the p-value results from. […] The number of surviving cells war increased by the factor 7.4 in comparison to untreated cells.

mRNA for catalase = assay: Catalase mRNA expression in the chorioidea-RPE-complex after zinc injection (real time RT-PCR); format: in vivo, rat
Procedure: After 6 and 24 hours the chorioidea-RPE-complex was isolated from the retina and sclera. The amount of catalase mRNA expression in the chorioidea-RPE-complex was quantified by real time RT-PCR with the SYBR Green I reaction system using an iCycler (Bio-Rad Laboratories, Hercules, Calif.). PCR primer (catalase: upper primer: TAGCCAGAAGAGAAACCCACAAACT (SEQ ID NO:1) and lower primer: TCCCTCGGTCGCTGAACAAGA (SEQ ID NO:2); GAPDH: upper primer: AACTTTGTGAAGCTCATTTCCTGGTAT (SEQ ID NO:3) and lower primer: CCT TGC TGG GCT GGG TGG T (SEQ ID NO:4)) were selected using the primer analysis software OLIGO®4.1 (National Biosciences, Plymoth, Minn., USA) that the primer specific melting temperature was between 58 and 60° C. […] The quantification data were calculated using the iCycler iQ System Software (Bio-Rad Laboratories, Hercules, Calif.). After subtraction of the PCR base line by the software, the linear logarithmic portion of the fluorescence was plotted versus the number of cycles to determine the cycle number (threshold cycle, CT) at which the threshold fluorescence for catalase and GAPDH as a reference was exceeded. Since the amplification effectivity of target and reference gene was approximately the same (delta CT<0.15) the comparative CT method was used for the quantification of the catalase in comparison GAPDH.

| Compound | auto-fluorescence specific for lipofuscin (Human RPE cells; group 1: 1 mM PTU, fed with membranes of visual cells on 15 successive days) | auto-fluorescence specific for lipofuscin (Human RPE cells; group 3: 1 mM PTU, not fed) | final zinc concentration in pigmented rats relative to treated albinos (times higher) ([1]; after injection of zinc, 24 hours) | zinc concentration of the chorioidea-RPE-complex ([1]; albino (Wistar) rats) | zinc concentration of the chorioidea-RPE-complex ([1]; pigmented (Long Evans) rats) | increase of zinc concentration (factor) versus untreated ([1]; pigmented rats, 24 hours after injection of zinc) | number of surviving cells ([2]; with irradiation (UVA 18 mW/cm^2, 1 hour), 100 μmol Zn) | number of surviving cells ([2]; with irradiation, 200 μmol Zn) | amount of mRNA for catalase (mRNA for catalase; 24 hours after 40 mg/kg ZnCl2 i.p.) | increase of mRNA for catalase (factor) (mRNA for catalase; six hours after 40 mg/kg ZnCl2 i.p., albino and pigmented rats compared) |
| --- | --- | --- | --- | --- | --- | --- | --- | --- | --- | --- |
| NC(=S)Nc1ccccc1 [PTU, phenylthiourea] | intensive, golden auto-fluorescence specific for lipofuscin | no auto-fluorescence |  |  |  |  |  |  |  |  |
| [Cl-].[Cl-].[Zn+2] [zinc, ZnCl2] |  |  | 19 | 6.5 µg/g | 125 µg/g | 1.6 | 33333 ± 11547 | 41666 ± 16072 | again as high as without zinc injection | 12 |
